In patent publication US10464963B2, “Compounds from invasive Salvinias and methods of using the same” (STEPHEN F. AUSTIN STATE UNIVERSITY, priority 2013, dated 2019):
Read-outs that look alike come from different tables or passages of the source.

How the values were obtained:
[1] = tested on: human breast cancer (MDA-MB-231); assay: cells; type: cell-based
Excerpt: Human exocrine pancreatic cancer (PANC-1 and BxPC-3), non-small cell lung cancer (A549), prostate cancer (PC-3), breast cancer (MDA-MB-231), and leukemia (HL-60) were obtained from The University of Texas M. D. Anderson Cancer Center, Houston, Tex., and Normal human lung fibroblasts cells (MRC-5) was purchased from the American Type Culture Collection (ATCC). PC-3, A549 and HL-60 cells were maintained in RPMI 1640 medium supplemented with 10% (v/v) fetal bovine serum and antibiotics (1,000 units/mL penicillin-streptomycin solution, Hyclone). PANC-1 and MRC-5 was cultured in complete growth medium according to the ATCC protocols. Cells were grown at 37° C. and 5% CO2 in humidified air.
(§1) Cytotoxicity of total extracts of S. molesta was tested against PANC-1, A549, PC-3, and MRC-5. Cytotoxicity of the fractions was determined using A549 cells, a human non-small lung cancer cell line. Fractions were tested at 25, 50, and 100 μg/mL. The isolated pure compounds were tested in each of the cultured human tumor and normal cell lines at various concentrations between 1 and 100 μM with three replications. Human tumor and normal cells were inoculated into 96 well microtiter plates in 90 μL at plating densities ranging from 5,000 to 40,000 cells/well (measured by Z2 Coulter Counter of Beckman) depending on the doubling time of individual cell lines. Cell growth and viability was measured by WST-8 (Water Soluble Tetrazolium) assays following a standard protocol (Cell Counting Kit-8, Dojindo Molecular, Maryland). The WST-8 assay measured the relative activity of mitochondrial reductase enzymes in viable cells. A control WST reading (T0) before treatment was measured, then cells were continuously exposed to isolates for 48 h. After WST added and incubated for 2 h, the amount of formazan was measured by using a microplate spectrophotometer (μQuant spectrophotometer, Bio-Tek Instruments, Inc., Vermont) at 450 nm. TC or TD represents the readings of the untreated control or with tested compounds. Percent cell-growth (G) and percent cell-growth inhibition (GI) was calculated as: G=(TD−T0/TC−T0)×100; GI=[1−(TD−T0/TC−T0)]×100 for which TD≥T0; and G=(TD−T0/T0)×100; GI=[1−(TD−T0/T0)]×100 for which TD≤T0. To determine the inhibitory potency of active compounds (GI50, 50% cell-growth inhibition), tests were extended to additional concentrations (varying from 0.01 to 100 μM). Cancer drug doxorubicin was used as the positive controls in the cell-based assays.

[2] = tested on: human exocrine pancreatic cancer (PANC-1); assay: Cytotoxicity assay (WST-8), PANC-1; type: cell-based
Description: (§2) PANC-1 and MRC-5 was cultured in complete growth medium according to the ATCC protocols. Cells were grown at 37° C. and 5% CO2 in humidified air.
as §1, with “To determine the inhibitory potency of active compounds (GI50, 50% cell-growth inhibition), tests were extended to additional concentrations (varying from 0.01 to 100 μM).” left out

[3] = tested on: human prostate cancer (PC-3); assay: Cytotoxicity assay (WST-8), PC-3; type: cell-based
Description: as §2
as §1, with “To determine the inhibitory potency of active compounds (GI50, 50% cell-growth inhibition), tests were extended to additional concentrations (varying from 0.01 to 100 μM).” left out

[4] = tested on: human exocrine pancreatic cancer (BxPC-3); assay: Cytotoxicity assay (WST-8), BxPC-3; type: cell-based
[5] = tested on: human non-small cell lung cancer (A549); assay: Cytotoxicity assay (WST-8), A549; type: cell-based
Description: as §2
as §1, with “To determine the inhibitory potency of active compounds (GI50, 50% cell-growth inhibition), tests were extended to additional concentrations (varying from 0.01 to 100 μM).” left out

[6] = tested on: normal human lung fibroblasts cells (MRC-5); assay: Cytotoxicity assay (WST-8), MRC-5; type: cell-based
Description: as §2
as §1, with “To determine the inhibitory potency of active compounds (GI50, 50% cell-growth inhibition), tests were extended to additional concentrations (varying from 0.01 to 100 μM).” left out

[7] = Cytotoxicity assay (WST-8), MRC-5; type: cell-based, human; conditions: human
Description: as §2
as §1, with “To determine the inhibitory potency of active compounds (GI50, 50% cell-growth inhibition), tests were extended to additional concentrations (varying from 0.01 to 100 μM).” left out

human leukemia (HL-60) = assay: Cytotoxicity assay (WST-8), HL-60; type: cell-based
[8] = Homo sapiens, PANC-1, 48 h, read-out: Cytotoxic activity (GI50) PANC-1
[9] = Homo sapiens, PANC-1, Table 1, read-out: Activity against human exocrine pancreatic tumor PANC-1 (GI50)
[10] = Homo sapiens, 48 h, read-out: Cytotoxic activity (GI50) PC-3
[11] = Homo sapiens, BXPC-3, 48 h, read-out: Cytotoxic activity (GI50) BxPC-3
[12] = Homo sapiens, BXPC-3, Table 1, read-out: Activity against human exocrine pancreatic tumor BxPC-3 (GI50) (converted)
[13] = Homo sapiens, A549, 48 h, read-out: Cytotoxic activity (GI50) A549
[14] = Homo sapiens, A549, Table 1, read-out: Activity against human non-small cell lung tumor A549 (GI50) (converted)
[15] = Homo sapiens, HL-60, 48 h, read-out: Cytotoxic activity (GI50) HL-60
[16] = Homo sapiens, A549, Table 7, WST-8, 48 h exposure, mean ± S.D., read-out: Cytotoxic activity (GI50) A549
[17] = Homo sapiens, Table 1, read-out: Activity against human prostate tumor PC-3 (GI50) (converted)
[18] = Homo sapiens, HL-60, Table 1, read-out: Activity against human leukemia HL-60 (GI50) (converted)
[19] = Homo sapiens, PANC-1, Table 7, WST-8, 48 h exposure, mean ± S.D., read-out: Cytotoxic activity (GI50) PANC-1
[20] = Homo sapiens, Table 7, WST-8, 48 h exposure, mean ± S.D., read-out: Cytotoxic activity (GI50) PC-3
[21] = Homo sapiens, BXPC-3, Table 7, WST-8, 48 h exposure, mean ± S.D., read-out: Cytotoxic activity (GI50) BxPC-3
[22] = Homo sapiens, HL-60, Table 7, WST-8, 48 h exposure, mean ± S.D., read-out: Cytotoxic activity (GI50) HL-60
[23] = Table 7, WST-8, 48 h exposure, mean ± S.D., read-out: Cytotoxic activity (GI50) PANC-1
[24] = Table 7, WST-8, 48 h exposure, mean ± S.D., read-out: Cytotoxic activity (GI50) PC-3
[25] = Table 7, WST-8, 48 h exposure, mean ± S.D., read-out: Cytotoxic activity (GI50) BxPC-3
[26] = Table 7, WST-8, 48 h exposure, mean ± S.D., read-out: Cytotoxic activity (GI50) A549
[27] = Table 7, WST-8, 48 h exposure, mean ± S.D., read-out: Cytotoxic activity (GI50) HL-60

SMILES | GI50 [2, 8] [µM] | GI50 [2, 9] [µM] | GI50 [3, 10] [µM] | GI50 [4, 11] [µM] | GI50 [4, 12] [µM] | GI50 [5, 13] [µM] | GI50 [5, 14] [µM] | GI50 at 48 h [7] [µM] | GI50 (human leukemia (HL-60); [15]) [µM] | GI50 [5, 16] [µM] | other results
CC(C)c1cc2c(c(O)c1O)[C@@]1(C)CCCC(C)(C)C1=C(O)C2=O [Compound 7, 14-deoxycoleon U] | 22.6 ± 4.18 | 22.6 | 8.39 ± 0.86 | 37.3 ± 7.44 | 37.3 | 9.1 ± 2.47 | 9.1 | 24.8 | 13.3 ± 5.62 |  | GI50 ([1]; MDA-MB-231, 48 h, read-out: Cytotoxic activity (GI50) MDA-MB-231): > 100 µM; GI50 ([1]; MDA-MB-231, Table 1, read-out: Activity against human breast tumor MDA-MB-231 (GI50)): > 100 µM; Toxicity against normal cell (in words) [6]: no toxic against normal cell
CC(C)c1cc2c(cc1O)[C@@]1(C)CCCC(C)(C)C1=CC2=O [Compound 9, 5,6-dehydrosugiol] | > 100 |  | > 100 | > 100 |  | 84.5 ± 18.7 | 84.5 | > 100 | 92.8 ± 9.98 |  | 
COc1cc2c(cc1C(C)C)C(=O)C(O)=C1C(C)(C)CCC[C@@]12C [Compound 11, montbretyl 12-methyl ether] |  |  |  |  |  |  | 21.2 |  |  | 21.2 ± 6.21 | 
CC(C)c1cc2c(c(O)c1O)[C@@]1(C)CCCC(C)(C)[C@@H]1CC2=O [Compound 12, 11-hydroxysugiol] | 43.1 ± 8.32 | 43.1 | 41 ± 7.9 | 45 ± 8.33 | 45 | 35 ± 6.2 | 35 | 40.2 ± 0.91 | 35.3 ± 0.63 |  | GI50 [3, 17]: 41 µM; GI50 (human leukemia (HL-60); [18]): 35.3 µM
CC(C)c1cc2c(cc1O)[C@@]1(C)CCCC(C)(C)[C@@H]1CC2=O [Compound 13, sugiol] |  |  |  |  |  |  |  |  |  | 79.8 ± 2.18 | GI50 [2, 19]: 87.9 ± 11.2 µM; GI50 [3, 20]: > 100 µM; GI50 [4, 21]: 36.1 ± 1.5 µM; GI50 ([6]; human, 48 h): > 100 µM; GI50 (human leukemia (HL-60); [22]): 68.6 ± 13.5 µM
CC(C)c1cc2c(cc1O)[C@@]1(C)CCCC(C)(C)[C@@H]1CC2 [Compound 14, ferruginol] |  |  |  |  |  |  |  |  |  | 30.7 ± 5.22 | GI50 [2, 19]: 41.1 ± 14.1 µM; GI50 [3, 20]: 56.5 ± 16.5 µM; GI50 [4, 21]: 21.1 ± 0.51 µM; GI50 ([6]; human, 48 h): 40 ± 7.74 µM; GI50 (human leukemia (HL-60); [22]): 27.3 ± 8.95 µM
CC(C)c1cc2c(cc1O)[C@@]1(C)CCCC(C)(C)C1CC2O (some centres unmarked) [Compound 15, 7-hydroxyferruginol] | 78.2 ± 13.5 | 78.2 | 85.6 ± 5.3 | 74.7 ± 11.1 | 74.7 | 75.1 ± 7.04 | 75.1 | 70.5 ± 7.21 | 75.2 ± 1.02 |  | GI50 [3, 17]: 85.6 µM; GI50 (human leukemia (HL-60); [18]): 75.2 µM
CC(C)c1cc2c(cc1O)[C@@]1(C)CCCC(C)(C)C1C=C2 (some centres unmarked) [Compound 16, 6,7-dehydroferruginol] | 46.7 ± 11 | 46.7 | 58.1 ± 3.28 | 37.5 ± 4.01 | 37.5 | 53.8 ± 9.65 | 53.8 | 59.2 ± 7.56 | 66.52 ± 0.04 |  | GI50 [3, 17]: 58.1 µM; GI50 (human leukemia (HL-60); [18]): 66.5 µM
CC(C)c1cc2ccc3c(c2cc1O)CCCC3(C)C [Compound 17, 12-hydroxy simonellite] |  | 37.5 |  |  | 36.4 |  | 42.2 |  |  | 42.2 ± 3.89 | GI50 [2, 19]: 37.5 ± 5.72 µM; GI50 [3, 17]: 43.6 µM; GI50 [3, 20]: 43.6 ± 11.9 µM; GI50 [4, 21]: 36.4 ± 8.08 µM; GI50 ([6]; human, 48 h): 55.4 ± 4.94 µM; GI50 (human leukemia (HL-60); [18]): 50 µM; GI50 (human leukemia (HL-60); [22]): 50 ± 15.2 µM
CC(C)c1ccc2c3c(ccc2c1)C(C)(C)CCC3 [Compound 18, simonellite] |  |  |  |  |  |  |  |  |  |  | GI50 [2, 23]: > 100 µM; GI50 [3, 24]: > 100 µM; GI50 [4, 25]: > 100 µM; GI50 [5, 26]: > 100 µM; GI50 [6]: > 100 µM; GI50 (human leukemia (HL-60); [27]): > 100 µM
CC(C)C1=Cc2ccc3c(c2C(=O)C1=O)C(=O)CCC3(C)C [Compound 19, 1-oxomiltirone] |  |  |  |  |  |  |  |  |  |  | GI50 [2, 23]: 32.1 ± 2.75 µM; GI50 [3, 24]: 19 ± 5.34 µM; GI50 [4, 25]: 20.5 ± 2 µM; GI50 [5, 26]: 24.9 ± 5.94 µM; GI50 [6]: 20.4 ± 3.36 µM; GI50 (human leukemia (HL-60); [27]): 23.3 ± 6.66 µM
CC(C)C1=C(O)C(=O)C2=C(CC[C@H]3C(C)(C)CCC[C@]23C)C1=O [Compound 20, royleanone] |  | 52.6 |  |  | 51 |  |  | 45.7 ± 2.32 |  | 30.1 ± 3.64 | GI50 [2, 19]: 52.6 ± 18.8 µM; GI50 [3, 20]: 27.1 ± 11.8 µM; GI50 [4, 21]: 51 ± 10.4 µM; GI50 (human leukemia (HL-60); [22]): 36.3 ± 7.14 µM
CC(C)C1=C(O)C(=O)C2=C(C=CC3C(C)(C)CCC[C@]23C)C1=O (some centres unmarked) [Compound 21, 6,7-dehydroroyleanone] | 51.3 ± 10 |  | 46.3 ± 6.6 | 41.7 ± 2.92 |  | 48 ± 7.75 |  |  | 30 ± 8.3 |  | GI50 ([2]; Homo sapiens, PANC-1, read-out: Activity against human exocrine pancreatic tumor PANC-1 (GI50)): 51.3 µM; GI50 ([3]; Homo sapiens, read-out: Activity against human prostate tumor PC-3 (GI50)): 46.3 µM; GI50 ([4]; Homo sapiens, BXPC-3, read-out: Activity against human exocrine pancreatic tumor BxPC-3 (GI50)): 41.7 µM; GI50 ([5]; Homo sapiens, A549, read-out: Activity against human non-small cell lung tumor A549 (GI50)): 48 µM; GI50 at 48 h ([7]; Table 7, normal lung cells, WST-8, 48 h exposure, mean ± S.D., read-out: Cytotoxic activity (GI50) MRC-5): 40.2 ± 2.06 µM; GI50 (human leukemia (HL-60); Homo sapiens, HL-60, read-out: Activity against human leukemia HL-60 (GI50)): 30 µM
CC(C)c1cc(C=O)c([C@@]2(C)CCCC(C)(C)[C@H]2C=O)cc1O [Compound 22, 12-hydroxy-6,7-secoabieta-8,11,13-triene-6,7-dial] |  |  |  |  |  | 93.8 ± 21.4 | 93.8 |  |  |  | 
